In patent US20140165223A1, “TNF SUPERFAMILY TRIMERIZATION INHIBITORS” (B.S.R.C. "Alexander Fleming", priority 2011, published 2014):
One block for each compound: values may come before it.

Tests used:
BAFF = target: T1, BAFF (Homo sapiens, UniProt Q9Y275); assay: BAFF cross-linking and Western (trimer formation); type: biochemical; details: DSS cross-linking
T1 construct: a cDNA encoding the core ectodomain of human BAFF residues 134-285 (17.5 kD), with or without the G249R substitution; GST (N, cleaved yes); made in house; host or cells: E. coli BL21
Source text: (§1) Glycine at codon 278 of mouse RANKL is highly conserved among various members of the TNF superfamily. In order to investigate whether this glycine to arginine substitution is also critical for trimerization in other TNF superfamily members, we reproduced this mutation in human BAFF (BAFF^G249R), a cytokine that activates B lymphocytes. Thus, we produced recombinant GST-BAFF in E coli and subsequently the soluble BAFF was released from GST by proteolytic cleavage. […] To examine whether soluble BAFF^G249R binds to BAFF receptor (BAFFR), serial dilutions of human BAFFR-Fc were incubated with immobilized soluble BAFF or BAFF^G249R (FIG. 21B). […] Thus, substitution of this conserved glycine abrogates trimerization not only in RANKL but also in other TNF superfamily members such as TNF, BAFF and possibly in many more.
The chemical cross-linking reagent disuccinimidyl suberate (DSS, Sigma) was used to examine the trimeric property of BAFF as previously described (Douni et al., 2012). Various amounts of BAFF proteins in PBS buffer (pH 7.5) were mixed with 1 mM DSS (the molar ratio of DSS is 10:1). The cross-linking reactions were carried out for 1 hour at room temperature and terminated with 50 mM Tris (pH 7.5) for 30 minutes. Proteins from reaction mixtures were separated on 12% SDS-PAGE and proceeded in Western blot using a polyclonal anti-BAFF antibody (PeproTech).

BAFFR-Fc = assay: BAFF/BAFF receptor ELISA; type: binding; details: serial dilutions of human BAFFR-Fc
Source text: as §1
Nunc plates were coated with 3 μg/ml recombinant soluble human BAFF or BAFF^G249R and incubated with increasing amount of recombinant human BAFFR-Fc (R&D Systems). BAFFR binding was detected with a horseradish peroxidase (HRP) conjugated goat anti-human IgG (Fc) (SouthernBiotech, Birmingham, USA) using o-phenylenediamine (OPD) substrate (Thermo Scientific Pierce) that was measured at 490 nm.

[1] = target: T2, binding of human RANKL to its receptor RANK (Homo sapiens, UniProt O14788); assay: RANKL/RANK ELISA; details: peptides 3-100 μM, dose dependent
T2 construct: a cDNA encoding the core ectodomain of human RANKL residues 143-317 (20 kD), was cloned into pGEX-6P-1; GST (N, cleaved yes); host or cells: Escherichia coli BL21 (RANKL)
T2 sequence (O14788 143-317): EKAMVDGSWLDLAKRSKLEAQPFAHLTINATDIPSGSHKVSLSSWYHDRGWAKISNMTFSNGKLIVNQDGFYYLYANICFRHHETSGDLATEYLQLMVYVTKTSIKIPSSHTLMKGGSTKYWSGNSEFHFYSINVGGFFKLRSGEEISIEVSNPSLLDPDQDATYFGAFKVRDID
Experimental: Nunc plates were coated with 100 μl of 250 ng/ml recombinant soluble human RANK-Fc (R&D Systems) overnight. Recombinant soluble human RANKL at 200 ng/ml was pre-incubated with increasing amounts of peptides (3-100 μM) for 1 hour at 37° C. and was added in the RANK-coated wells. RANKL binding was detected with a polyclonal goat anti-RANKL antibody (R&D Systems), followed by a horseradish peroxidase (HRP) conjugated horse anti-goat IgG (Vector) using o-phenylenediamine (OPD) substrate (Thermo Scientific Pierce) that was measured at 490 nm.

human RANKL = target: T3, human RANKL (Homo sapiens, UniProt O14788); assay: RANKL-mediated osteoclastogenesis assay with human RANKL; type: cell-based
T3 construct: purchased Peprotech
T3 sequence (O14788 143-317 limits assumed): T2 sequence (O14788 143-317)
Source text: However, SPD304 contains a potentially toxic 3-substituted indole moiety that produces reactive intermediates that possibly cause toxicities by covalently binding to nucleophilic residues of protein and/or DNA. […] These small molecules have been also tested as regards their effect on cell toxicity (FIG. 14C).
BM cells were collected after flushing out of femurs and tibiae, subjected to gradient purification using FICOLL-PAQUE™ (GE Healthcare), plated in 96-well plates at a density of 6×10^4 cells per well and cultured in αMEM medium (GIBCO) containing 10% fetal bovine serum supplemented with 50 ng/ml human RANKL (Peprotech) and 25 ng/ml M-CSF (R&D Systems) for 5 days. […] Osteoclasts were stained for TRAP activity (Sigma).

TNF = TNF (Homo sapiens, UniProt P01375); details: cited from earlier work
Chain of TNF (P01375 77-233 limits assumed): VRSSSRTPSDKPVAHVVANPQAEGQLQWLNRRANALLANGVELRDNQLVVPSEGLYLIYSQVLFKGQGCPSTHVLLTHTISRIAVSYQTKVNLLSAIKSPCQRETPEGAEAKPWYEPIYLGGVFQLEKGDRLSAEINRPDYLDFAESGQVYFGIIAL

soluble mouse RANKL = target: T4, soluble mouse RANKL (Mus musculus, UniProt O35235); assay: Soluble mouse RANKL preincubated with SPD304: native gel and DSS cross-linking; type: biochemical
T4 construct: a cDNA encoding the core ectodomain of murine RANKL residues 158-316, with or without the G278R substitution; GST (N, cleaved yes); made in house; host or cells: Escherichia coli BL21
T4 sequence (O35235 158-316): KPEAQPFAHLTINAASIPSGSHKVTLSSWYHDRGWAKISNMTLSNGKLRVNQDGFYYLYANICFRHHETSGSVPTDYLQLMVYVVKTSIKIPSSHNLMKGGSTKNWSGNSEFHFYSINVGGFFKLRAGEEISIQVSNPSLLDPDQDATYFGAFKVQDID
Experimental: FIG. 13. Effect of SDP304 on RANKL structure. (Panel A) RANKL dimer with SPD304 located on optimum binding position. G278 is shown with space-filled atoms and SPD304 with doted surface. Cyan and green ribbons represent the two RANKL monomers. Diagram created using PYMOL v1.3. (Panel B) Recombinant WT soluble mouse RANKL (60 ng) was preincubated for 1 hour at 37° C. either with SPD304 at various concentrations from 6-200 μM or without SPD304 (−), resolved on native gel and detected by Western blotting using a polyclonal antibody against RANKL. (Panel C) Recombinant soluble mouse RANKL was preincubated with SPD304 at increasing concentrations from 6-100 μM, was cross-linked with DSS, run on 12% SDS-PAGE and detected by Western blot using an anti-RANKL polyclonal antibody. A representative figure of three independent experiments is shown for Western blots.
Experimental evidence on the TNF analogue and in silico binding studies on mouse RANKL confirm that the optimal binding position of SPD304, causing trimer inhibition, is located very close (<4 Å) to the G278 mutation position in the structure (FIG. 13, Panel A). To experimentally confirm the interference of the SPD304 with the RANKL structure, soluble mouse RANKL was preincubated with increasing concentrations of SPD304 (6-200 μM) and analyzed in native gels showing the natural conformation of RANKL protein (FIG. 13, Panel B). […]

GST-RANKL = target: T5, GST-RANKL (Mus musculus, UniProt O35235); assay: Ex vivo RANKL-induced osteoclast formation (BM cells, M-CSF + GST-RANKL, TRAP staining); type: cell-based; details: BM cells, 25 ng/ml M-CSF, 80 ng/ml GST-RANKL
T5 construct: a cDNA encoding the core ectodomain of murine RANKL residues 158-316, with or without the G278R substitution; made in house; host or cells: Escherichia coli BL21
T5 sequence (O35235 158-316): T4 sequence (O35235 158-316)
Experimental: Instead, WT GST-RANKL (ratio 1:0) induced formation of TRAP+ giant osteoclasts (FIGS. 5A-5C). […] Incubation of WT GST-RANKL with GST at similar concentrations (12.5-100 ng/ml), didn't affect the formation of osteoclasts.
A novel small molecule inhibitor of TNF trimerization, named SPD304, has been recently reported^[35] to interact with glycine 122 (G122) that corresponds to G278 in RANKL.
BM cells were collected after flushing out of femurs and tibiae, subjected to gradient purification using FICOLL-PAQUE™ (GE Healthcare), plated in 24-well plates at a density of 5×10^5 cells per well and cultured in αMEM medium (GIBCO) containing 10% fetal bovine serum supplemented with 40 ng/ml RANKL (R&D Systems) and 25 ng/ml M-CSF (R&D Systems) for 5 days. Similarly, splenocytes were collected, plated in 24-well plates at a density of 10^6 cells per well and cultured in the presence of recombinant RANKL and M-CSF for 6 days. GST-RANKL^G278R was pre-incubated with WT GST-RANKL at room temperature for 20 min, prior to the stimulation of the BM cell cultures, in order to enable exchange of the RANKL variants and heterotrimer formation. Small molecule SPD304 (Sigma-Aldrich) was pre-incubated with 80 ng/ml GST-RANKL at various concentrations from 0.25 to 2 μM in αMEM medium for 1 hour at room temperature and then added to culture. Osteoclasts were stained for TRAP activity.

osteoclast precursors = assay: MTT survival assay in osteoclast precursors; type: cell-based
Experimental: (§2) However, SPD304 contains a potentially toxic 3-substituted indole moiety that produces reactive intermediates that possibly cause toxicities by covalently binding to nucleophilic residues of protein and/or DNA. […] Therefore, we investigated the potential of testing SPD304 derivatives designed to be less toxic with higher specificity for human RANKL. […] These small molecules have been also tested as regards their effect on cell toxicity (FIG. 14C).
(§3) Bone marrow (BM) cells were plated in 96-well plates at a density of 10^5 cells per well after gradient purification using FICOLL-PAQUE™ (GE Healthcare). BM cells were cultured in αMEM medium (GIBCO) containing 10% fetal bovine serum supplemented with 25 ng/ml M-CSF (R&D Systems) in the presence of the tested compounds at concentrations from 1-20 μM for 2 days (0.1% DMSO). Serum free a-MEM medium containing 0.5 mg/ml MTT [3-(4,5-Dimethylthiazol-2-yl)-2,5-diphenyltetrazolium bromide] was added for 2 hours in a 37° C. CO2 incubator. After removal of the MTT solution, DMSO was added to extract the dye from the cells and cell viability was accessed at 550 nm.

[2] = MTT survival assay in osteoclast precursors; type: cell-based; details: M-CSF, 1-20 μM, 2 days, read-out: IC50 in MTT survival assay (cell toxicity)
Experimental: as §2, §3

BAFF trimer assembly (BAFF): failure of spontaneous trimer assembly
binding to BAFF receptor (BAFFR-Fc): cannot bind to its receptor
Compound: BAFF^G249R: soluble human BAFF residues 134-285 with the G249R substitution

Compound: HFYSINVGRFFK (RANKL fragment) [peptide 2]
inhibition of binding of human RANKL to RANK [1]: inhibit the binding of human RANKL to its receptor RANK
inhibition of RANKL function in RANKL-dependent osteoclastogenesis assays (human RANKL; peptides at 50 μM (FIG. 16A)): inhibited the function of RANKL

formation of multinuclear TRAP+ osteoclasts (GST-RANKL; SPD304 at 2 μM): completely inhibited
Compound: Cc1cc2occ(CN(C)CCN(C)Cc3cn(-c4cccc(C(F)(F)F)c4)c4ccccc34)c(=O)c2cc1C [SPD304, 6,7-Dimethyl-3-[[methyl[2-[methyl[[1-[3-(trifluoromethyl)phenyl]-1H-indol-3-yl]methyl]amino]ethyl]amino]methyl]-(4H-1-Benzopyran-4-one)]
inhibition of TNF trimerization and function (TNF): effectively inhibits TNF trimerization and function
RANKL forms after chemical cross-linking (soluble mouse RANKL; SPD304 6-100 μM, DSS): dramatic increase of RANKL dimers and monomers
RANKL conformation in native gel (soluble mouse RANKL; SPD304 6-200 μM, 1 hour at 37° C.): a second band of lower molecular weight was also evident
inhibition of human RANKL function in osteoclastogenesis (human RANKL; 2 μM): effective in inhibiting human RANKL function
formation of TRAP+ multinucleated osteoclasts (GST-RANKL; SPD304 at 1 μM): attenuated both the number and the size of TRAP+ multinucleated cells
toxic concentrations in MTT survival assay (osteoclast precursors): above 5 μM
IC50 at 2 days [2]: 3.4 µM
